This is an account of results in PMC2225439, “Amyloid as a Depot for the Formulation of Long-Acting Drugs” (PLoS Biology, 2008).

Data set [1] can be described thus: Peptide release from amyloid (dialysis experiment). Conditions: 3.5-kDa MWCO, room temperature, 35 d.
In data set [2] the target is T1, α-Syn (Homo sapiens, UniProt P37840).
T1 construct: made in house
Description: Cross-seeding of α-Syn by L20 fibrils. To be noted: matured fibrils 5% v/v with 400 μM α-Syn in PBS pH 7.4, 37 °C, vigorous stirring, 30 d; Thio T. The method, then: Although the seeding of amyloids requires a high amino acid sequence similarity between the protein/peptide of the seed and its soluble host counterpart, cross-seeding between different protein species have been documented. To test whether amyloids of long-acting GnRH analogs are able to cross-seed with a protein associated with Parkinson disease, α-Syn, a seeding reaction was done with a small amount of matured L20 fibrils (5% v/v) in the presence of α-Syn (95% v/v; 400 μM concentration of monomeric solution [pH 7.4] in PBS). The fibril growth of the mixture as well as α-Syn in PBS as control were followed over a period of 30 d by Thio T binding.
(§1) A total of 5 μl of matured L20 fibril solution at a concentration of 1 mg/ml in 5% D-mannitol, 0.01% sodium azide was mixed with 95 μl of freshly prepared GnRH solution in the same solution condition followed by incubation at room temperature without stirring. […] Once a week, a 10-μl aliquot was diluted into 500 μl water containing 5% D-mannitol, 0.01% sodium azide, and 10 μl of 1 mM Thio T to measure the Thio T fluorescence as described above. […] The protein concentration of the supernatant was measured by UV absorbance with ɛ280 of 6,500 M^−1cm^−1. […] The formation of amyloid was monitored regularly for the mixture (α-Syn+L20) and α-Syn by Thio T binding.

Data set [3] has as its target T2, wild-type GnRH (Homo sapiens, UniProt P01148).
T2 construct: gonadotropin-releasing hormone (GnRH); made in house; host or cells: chemical solid-phase synthesis (no expression host)
Briefly: Seeding of wild-type GnRH by L20 fibrils. Conditions: matured fibrils 5% v/v with GnRH solution 95% v/v, 5% D-mannitol, room temperature without stirring, 1 mo; Thio T and EM.
Description: Another concern for the application of amyloids in the formulation of long-acting drugs is the potential multiplication and spread of amyloids through seeding. Only a small amount of fibrillar seed is needed to induce and accelerate self-polymerization in the presence of monomeric amyloid protein/peptide. Within the context of GnRH, perhaps amyloids of the injected GnRH analogs may act as the seeds and the host GnRH as the reservoir of the free monomer. To mimic this situation in vitro, a seeding reaction was set up with a small amount of matured, long-acting L20 fibrils (5% v/v) in presence of a solution of wild-type GnRH (95% v/v). […]
as §1

“Ac-DNal-DCpa-Agl(Nic)-Ser-Aph(Ac)-DAph(Ac)-Leu-ILys-Pro-DAla-NH2 [L20]”: in data set [1] (dissociation constant of the aggregates = final monomer concentration, 200 μl of 30-d-old analog dialyzed against 4 ml 5% D-mannitol, fluorescence ex 280 nm), the KD is 8 µM. The t1/2 in data set [1] (half-life of fibrils: time in which fluorescence inside drops by 50%, dialysis of 30-d-old analog, 5% D-mannitol, exponential fit, 2 d = intrinsic diffusion of monomer) worked out at 35 days. The “cross-seeding of α-Syn” value in data set [2] is listed as “did not significantly influence the aggregation of α-Syn”. In data set [3], the “seeding of wild-type GnRH” value is “unable to seed wild-type GnRH”.
